Results taken from publication PMC7591795, “Humulone Modulation of GABAA Receptors and Its Role in Hops Sleep-Promoting Activity” (Frontiers in Neuroscience, 2020).
Read-outs that look alike come from different tables or passages of the source.

What was measured:
[1] = molecular target: T1, recombinant α6β3δ GABAA receptors (Rattus norvegicus, UniProt P18506+P30191+P63079); experiment: [3H]EBOB binding assay, recombinant α6β3δ receptors in HEK293 cell membranes; details: GABA 3 μM
T1 construct: expressed in transfected cells; host or cells: HEK293 cells, transient CaPO4 transfection, pRK5 plasmids; cell membranes used
Protocol: The cells were divided and plated on 150 mm culture dishes for binding assays and 12 mm coverslips in 24-well cell culture plates for electrophysiology 24 h before transfection.
The cells were transiently transfected with rat cDNAs encoding GABAA receptor subunits (α1, L08490; α6, L08495; β3, X15468; γ2S, L08497; δ, L08496) in pRK5 plasmids under the control of CMV promoter ([Uusi-Oukari et al., 2000]). The plasmids were used in 1:1 and 1:1:1 ratio for transfections containing α1β3γ2S, α6β3, α6β3γ2S, and α6β3δ receptor subtypes. […] (Supplementary Figure S1). For electrophysiology, K4® transfection system (Biontex, München, Germany) was used according to the manufacturer’s protocol to increase expression efficiency and cell viability. […] The medium was changed 24 h after transfection and all experiments were performed 48 h after transfection.
The protein concentrations of brain membranes were determined with the Bio-Rad Coomassie blue dye-based protein assay kit (Hercules, CA, United States) as per the manufacturer’s protocol. Transfected HEK293 cells were harvested 48 h after transfection using a detaching buffer (10 mM Tris-HCl, 0.15 M NaCl, 2 mM EDTA) and centrifuged at 20,000 g for 10 min at +4 °C. The resulting pellets were suspended in the assay buffer for binding assays.
In humulone concentration series with recombinant α6β3, α6β3γ2S, and α6β3δ receptors, HEK293 cell membranes were incubated in the same above conditions for 120 min with [^3H]EBOB (1 nM) and different concentrations of humulone (30 nM–30 μM) in the presence or absence of ethanol (30 mM). […] Picrotoxin (100 μM) was used to determine the non-specific binding in all assays.
Membrane samples were filtered through Whatman GF/B glass fiber filters (Whatman International Ltd., Maidstone, United Kingdom) using a Brandel Cell Harvester (model M-24, Gaithersburg, MD, United States). The filters were rinsed three times with 5 mL of ice-cold 10 mM Tris-HCl, pH 7.4 buffer. Air-dried filters were immersed in 3 mL of Hidex AquaLight Beta scintillation liquid and radioactivity was determined in Hidex 600 SL liquid scintillation counter (Hidex, Turku, Finland).

BALB/cAnNRj mice [2] = experiment: Open field test (spontaneous locomotor activity); type: in vivo
Protocol: Each mouse was then placed individually into the center of a brightly illuminated white Plexiglass arena (50 × 50 × 38 cm) and recorded continuously for 15 min with Ethovision version 13 tracking system (Noldus, Wageningen, The Netherlands). The parameters of locomotor activity such as distance and velocity were quantified and analyzed for the whole and subsections of the arena. All arena surfaces were thoroughly cleaned with 70% ethanol and dried between each tested subject.

[3] = molecular target: native GABAA receptors in rat forebrain membranes; set-up: method as in Benkherouf et al., 2020; details: ref Benkherouf et al., 2020, cited from earlier work
[4] = test system: native αβγ2 GABAA receptors, classical benzodiazepine binding site; set-up: method as in Benkherouf et al., 2019, 2020; details: ref Benkherouf et al., 2019, 2020, cited from earlier work
mice = test system: mice; set-up: method as in Schiller et al., 2006; details: ref Schiller et al., 2006, cited from earlier work
rats = details: ref Bejeuhr, 1993, cited from earlier work
BALB/cAnNRj mice [5] = experiment: Pentobarbital-induced sleep test
Protocol: As an index of drug-induced CNS inhibition, sleep latency (time between pentobarbital administration and loss of righting reflex) and duration of sleep (time between loss and recovery of righting reflex) were measured with a chronometer for each mouse. The recovery of the righting reflex was confirmed by the ability of the mice to re-right 3 times within 1 min. The drugs were freshly prepared before use, and the total injection volume (13 mL/kg) was retained constant.

[6] = humulone 10 mg/kg i.p. vs control
[7] = humulone 20 mg/kg i.p., 45 min after administration, 15 min observation, vs vehicle, p < 0.01
[8] = humulone 10 mg/kg i.p., pentobarbital sodium 35 mg/kg i.p.

T1 sequence (P30191 20-453): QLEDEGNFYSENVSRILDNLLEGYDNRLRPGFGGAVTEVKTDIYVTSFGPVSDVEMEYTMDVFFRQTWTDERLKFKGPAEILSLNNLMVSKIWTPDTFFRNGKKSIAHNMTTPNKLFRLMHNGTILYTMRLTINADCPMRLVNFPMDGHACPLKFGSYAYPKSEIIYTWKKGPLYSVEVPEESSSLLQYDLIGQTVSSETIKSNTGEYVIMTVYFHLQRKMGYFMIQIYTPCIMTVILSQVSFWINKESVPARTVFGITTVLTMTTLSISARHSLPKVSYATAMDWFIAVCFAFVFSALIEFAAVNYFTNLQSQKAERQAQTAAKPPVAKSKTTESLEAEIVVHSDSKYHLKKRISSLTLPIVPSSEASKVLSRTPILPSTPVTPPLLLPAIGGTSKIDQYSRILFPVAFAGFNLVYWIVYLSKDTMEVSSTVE
T1 sequence (P63079 26-473): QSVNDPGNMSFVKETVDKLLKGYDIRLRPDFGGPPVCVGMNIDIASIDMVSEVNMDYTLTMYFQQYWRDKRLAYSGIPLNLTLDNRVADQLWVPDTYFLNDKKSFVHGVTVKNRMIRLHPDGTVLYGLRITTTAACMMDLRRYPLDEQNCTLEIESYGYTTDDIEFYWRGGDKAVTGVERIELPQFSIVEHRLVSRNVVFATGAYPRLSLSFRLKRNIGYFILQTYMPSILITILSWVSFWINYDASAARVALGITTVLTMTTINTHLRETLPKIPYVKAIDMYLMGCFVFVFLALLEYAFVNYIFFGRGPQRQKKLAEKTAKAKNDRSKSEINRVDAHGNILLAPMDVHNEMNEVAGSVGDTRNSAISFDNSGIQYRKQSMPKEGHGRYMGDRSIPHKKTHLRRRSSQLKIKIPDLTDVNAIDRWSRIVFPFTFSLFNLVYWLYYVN
T1 sequence (P18506 25-449): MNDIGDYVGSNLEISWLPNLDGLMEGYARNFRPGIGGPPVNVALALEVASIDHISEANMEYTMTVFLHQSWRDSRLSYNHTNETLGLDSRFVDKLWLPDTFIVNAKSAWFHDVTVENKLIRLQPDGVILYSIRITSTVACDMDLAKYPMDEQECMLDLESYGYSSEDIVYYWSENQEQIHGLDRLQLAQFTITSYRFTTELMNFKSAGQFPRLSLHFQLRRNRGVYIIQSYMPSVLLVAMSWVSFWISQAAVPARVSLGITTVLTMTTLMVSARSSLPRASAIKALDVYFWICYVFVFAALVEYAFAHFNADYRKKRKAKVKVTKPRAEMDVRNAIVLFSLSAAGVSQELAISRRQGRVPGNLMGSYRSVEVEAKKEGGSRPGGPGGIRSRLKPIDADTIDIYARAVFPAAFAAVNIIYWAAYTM

## CC(C)=CCC1=C(O)[C@@](O)(CC=C(C)C)C(=O)C(C(=O)CC(C)C)=C1O [humulone]
[1]; α6β3δ
  concentration at which potentiation of GABA-induced [3H]EBOB displacement was evident: ≥ 1 µM
[1]; ratio of IC50 values
  increase in potency in α6β3δ compared to α6β3 receptors: 6.7 fold
  increase in potency in α6β3δ compared to α6β3γ2 receptors: 5.8 fold
BALB/cAnNRj mice [2]; [6]
  significant difference in average velocity in open field: not observed
  significant difference in total distance traveled in open field: not observed
BALB/cAnNRj mice [2]; [7]
  average velocity in open field: lower
  total distance traveled in open field: shorter
BALB/cAnNRj mice [2]; humulone 10 and 20 mg/kg i.p. vs vehicle, Supplementary Figure S3
  time spent in periphery and center in open field: no differences
[3]; rat forebrain membranes, read-out: IC50, modulation of [3H]EBOB binding
  IC50: 3.2 ± 0.4 µM
[3]
  sensitivity of modulatory effect on [3H]EBOB binding to flumazenil antagonism: insensitive
[3]; listed as humulone fraction
  sensitivity of modulatory effect on [3H]EBOB binding to flumazenil antagonism: insensitivity
[4]
  displacement of [3H]Ro 15-4513 binding (benzodiazepine binding site): very weak displacement
[4]; listed as humulone fraction
  displacement of [3H]Ro 15-4513 binding (benzodiazepine binding site): low potency
mice; humulone component in alpha acid extract at 21 mg/kg
  duration of sleep induced by ketamine: increase
mice; humulone component in alpha acid extract at 42 mg/kg
  duration of sleep induced by ketamine, additional effect at higher dose: no additional effect
rats; i.m. (rats)
  LD50: 600 mg/kg/b.w.
rats; p.o., rodents
  LD50: 1,500 mg/kg/b.w.
BALB/cAnNRj mice [5]; [8]
  duration of sleep induced by pentobarbital: not observed
  sleep latency induced by pentobarbital: not observed
BALB/cAnNRj mice [5]; humulone 20 mg/kg i.p., 45 min before pentobarbital sodium 35 mg/kg i.p., vs control, p < 0.001
  duration of sleep induced by pentobarbital: prolonged
BALB/cAnNRj mice [5]; humulone 20 mg/kg i.p., 45 min before pentobarbital sodium 35 mg/kg i.p., vs control, p < 0.01
  sleep latency induced by pentobarbital: significantly decreased
